From patent publication US20220184034A1, “METHODS FOR TREATING CUTANEOUS METASTATIC CANCERS” (Adgero Biopharmaceuticals Holdings, Inc., priority 2020, published 2022)

What was measured:
Assay type in all cases: in vivo, patients
CMBC lesions [1] = assay: Four phase 2/3 studies of SnET2 PDT: lesion reaction score and time to lesion evaluation; details: 1.2 mg/kg; for Median Evaluable Week / Total with Max Reaction During Trial ≥4: 200 J/cm^2, ~24 h, lesions larger than 1 cm; for median time to evaluation: 200 J/cm^2
Procedure: Subsequent studies were conducted with dose parameters of 1.2 mg/kg of photosensitizer, 200 J/cm^2 of light, and 24 hours post administration as a treatment timepoint.
(§1) A factor that impacts clinical outcome is the time delay required for post-treatment effects to resolve. This factor is observed in the results from four subsequent phase 2/3 studies of CMBC lesions using a fixed drug dose of 1.2 mg/kg and a fixed light dose of 200 J/cm^2 administered at approximately 24 hours post-infusion. In these studies lesions were first scored for lesion reaction and then scored for lesion treatment response after the lesion reaction had resolved. In the case of lesion reaction scoring, the reaction was first assessed by the investigator at approximately 4-week intervals and assigned a Reaction Score according to the following defined terms: • 0=No erythema, edema or residual eschar • 1=Mild (faint) erythema and/or slight edema present • 2=Moderate erythema and edema present • 3=Severe erythema and edema present • 4=Sloughing, ulceration, and/or eschar present • 5=Eschar requiring debridement
(§2) Once a lesion scored a Reaction Score of 0 or 1 it was deemed suitably healed for evaluation, at which time its treatment response was quantified by visual measurement of the two longest dimensions. In those cases where the patient left the study before a reaction score of 0-1 was reached, those lesions were classified as not evaluable.
(§3) An analysis conducted of the median time to lesion evaluation (time to reach a reaction score of 0 or 1) in these same four phase 2/3 CMBC trials indicates the time delay for post-treatment effects to resolve was closely associated with the acute (week 1-2 post-treatment) lesion reaction score, with higher acute reaction scores being associated with a longer time to lesion evaluation, consistent with a more severe treatment reaction requiring a longer time to resolve. […] Because larger lesions are most likely to be clinically relevant, this table only includes those lesions from the same four CMBC phase 2/3 trials that had baseline dimensions larger than 1 cm.

[2] = test system: cutaneous lesions arising from either basal cell cancer, squamous cell cancer or CMBC; assay: Phase 1/2 dose escalation study of SnET2 PDT: acute lesion reaction grade at Week 1; details: Week 1 post-treatment
Procedure: Two Phase 1/2 studies established the clinical dosimetry. The first study was a dose escalation study that enrolled a total of 22 patients with cutaneous lesions arising from either basal cell cancer, squamous cell cancer or CMBC. A total of 213 lesions were treated using photosensitizer SnET2) doses ranging from 0.1-1.2 mg/kg, light doses of 100, 150 or 200 J/cm^2 and treatment timepoints of 24, 48, or 72 hours post-infusion. Two key measures were utilized in these studies, lesion reaction and lesion response. Lesion reaction was an acute characterization of the treatment effect that was performed out to 1 week post-treatment according to the following scale: • Grade 0=No visual erythema or edema • Grade 1=Faint erythema and/or slight edema • Grade 2=Moderate erythema and edema • Grade 3=Severe discoloration, edema, sloughing or eschar
A further analysis was undertaken to explore the relationship between the acute lesion reaction and the lesion response. […] Following are the results from patients who were scored for lesion reaction at Week 1 post-treatment and who received a drug dose of 0.8 mg/kg or higher. […] For the 0.8 mg/kg cases, only 5 of the 37 lesions (14%) received the highest lesion reaction score. In the case of the 1.2 mg/kg dose group, the percentage of lesions with the maximum lesion reaction score, 13 of 22 (59%), was substantially higher.

CMBC lesions [3] = assay: Four phase 2/3 studies of SnET2 PDT: lesion treatment response; details: 1.2 mg/kg; for Responders / Response Rate of Evaluable Lesions: 200 J/cm^2, ~24 h, lesions larger than 1 cm; for lesion response rate: 200 J/cm^2
Procedure: as §1, §2, §3

[4] = acute lesion reaction score 0-1
[5] = acute lesion reaction score 2-3
[6] = acute lesion reaction score 4-5

Substance: tin ethyl etiopurpurin [SnET2]
- healing following treatment (CMBC lesions [1]; 200 J/cm^2, 24 hours post administration): slow healing following treatment was observed
- Median Evaluable Week (CMBC lesions [1]; [4]): 1 Week
- Total with Max Reaction During Trial ≥4 (CMBC lesions [1]; [4]): 14
- Median Evaluable Week (CMBC lesions [1]; [5]): 6 Week
- Total with Max Reaction During Trial ≥4 (CMBC lesions [1]; [5]): 165
- Median Evaluable Week (CMBC lesions [1]; [6]): 12 Week
- Total with Max Reaction During Trial ≥4 (CMBC lesions [1]; [6]): 496
- median time to evaluation (CMBC lesions [1]; acute lesion reactions of 2-3): 6 weeks
- median time to evaluation (CMBC lesions [1]; acute reactions of 4-5 (eschar or ulceration)): 12 weeks
- % with Max Rx Score at Week 1 ([2]; 0.8 mg/kg, 100 J/cm^2): 0%
- Total with Max Rx Score at Week 1 ([2]; 0.8 mg/kg, 100 J/cm^2): 0
- % with Max Rx Score at Week 1 ([2]; 0.8 mg/kg, 150 J/cm^2): 7%
- Total with Max Rx Score at Week 1 ([2]; 0.8 mg/kg, 150 J/cm^2): 1
- % with Max Rx Score at Week 1 ([2]; 0.8 mg/kg, 200 J/cm^2): 27%
- Total with Max Rx Score at Week 1 ([2]; 0.8 mg/kg, 200 J/cm^2): 4
- lesions with the highest lesion reaction score ([2]; 0.8 mg/kg): 5 of the 37
- percentage of lesions with the highest lesion reaction score ([2]; 0.8 mg/kg): 14%
- % with Max Rx Score at Week 1 ([2]; 1.0 mg/kg, 100 J/cm^2): 0%
- Total with Max Rx Score at Week 1 ([2]; 1.0 mg/kg, 100 J/cm^2): 0
- % with Max Rx Score at Week 1 ([2]; 1.0 mg/kg, 150 J/cm^2): 0%
- Total with Max Rx Score at Week 1 ([2]; 1.0 mg/kg, 150 J/cm^2): 0
- % with Max Rx Score at Week 1 ([2]; 1.0 mg/kg, 200 J/cm^2): 0%
- Total with Max Rx Score at Week 1 ([2]; 1.0 mg/kg, 200 J/cm^2): 0
- % with Max Rx Score at Week 1 ([2]; 1.2 mg/kg, 100 J/cm^2): 33%
- Total with Max Rx Score at Week 1 ([2]; 1.2 mg/kg, 100 J/cm^2): 2
- % with Max Rx Score at Week 1 ([2]; 1.2 mg/kg, 150 J/cm^2): 78%
- Total with Max Rx Score at Week 1 ([2]; 1.2 mg/kg, 150 J/cm^2): 7
- % with Max Rx Score at Week 1 ([2]; 1.2 mg/kg, 200 J/cm^2): 57%
- Total with Max Rx Score at Week 1 ([2]; 1.2 mg/kg, 200 J/cm^2): 4
- lesions with the maximum lesion reaction score ([2]; 1.2 mg/kg): 13 of 22
- percentage of lesions with the maximum lesion reaction score ([2]; 1.2 mg/kg): 59%
- Responders (CMBC lesions [3]; [4]): 48
- Response Rate of Evaluable Lesions (CMBC lesions [3]; [4]): 63%
- Responders (CMBC lesions [3]; [5]): 168
- Response Rate of Evaluable Lesions (CMBC lesions [3]; [5]): 81%
- Responders (CMBC lesions [3]; [6]): 179
- Response Rate of Evaluable Lesions (CMBC lesions [3]; [6]): 88%
- lesion response rate (CMBC lesions [3]; acute lesion reactions of 2-3): 81%
- lesion response rate (CMBC lesions [3]; acute reactions of 4-5): 88%
